Reference: the supplement of paper PMC9013687
± gives the standard deviation of the averaged measurements.

Assays:
Danio rerio embryo [1] = conditions: exposure time: 4 dpf
Protocol: (§1)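 Zebrafish embryos (UFZ-OBI strain) were exposed from 2 hpf for 48 h (2 dpf) or 96 h (4 dpf) at 28 °C; spontaneous tail coiling was scored at 25 hpf. Morphological features from automated image analysis (FishInspector), heart rate and locomotor response were fitted with drc models. Quantal endpoints were dichotomised at 2.5 SD from controls and fitted with a log-logistic model; heart rate, pigmentation and STC were normalised to the replicate control mean. Betamethasone was tested as betamethasone dipropionate, diflorasone as diflorasone diacetate.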

Danio rerio embryo [2] = experiment: EC50 Eye-jaw distance_Decrease; conditions: exposure time: 4 dpf
Protocol: as §1

Danio rerio embryo [3] = experiment: EC10 Eye-jaw distance_Decrease; higher = less potent; conditions: exposure time: 4 dpf
Protocol: as §1

Danio rerio embryo [4] = experiment: EC50 Curvature_Increase; conditions: exposure time: 2 dpf
Protocol: as §1

Danio rerio embryo [5] = system: Danio rerio embryo
Protocol: as §1

Danio rerio embryo [6] = experiment: EC20 Body length_Decrease; higher = less potent
Protocol: as §1

Danio rerio embryo [7] = experiment: EC20 Pericard size_Increase; higher = less potent; conditions: exposure time: 2 dpf
Protocol: as §1

Danio rerio embryo [8] = experiment: EC10 Lack of SB; higher = less potent; conditions: exposure time: 4 dpf
Protocol: as §1

Danio rerio embryo [9] = experiment: EC10 Body length_Decrease; higher = less potent
Protocol: as §1

Danio rerio embryo [10] = experiment: EC10 Heart rate; higher = less potent
Protocol: as §1

Danio rerio embryo [11] = experiment: EC20 Pigmentation increase; higher = less potent; conditions: exposure time: 4 dpf
Protocol: as §1

Danio rerio embryo [12] = experiment: EC50 Yolk sac size_Increase; conditions: exposure time: 4 dpf
Protocol: as §1

Danio rerio embryo [13] = experiment: EC20 Any effect; higher = less potent
Protocol: as §1

Danio rerio embryo [14] = experiment: EC20 LMR dark; higher = less potent; conditions: exposure time: 4 dpf
Protocol: as §1

Danio rerio embryo [15] = experiment: EC20 Eye size_Decrease; higher = less potent; conditions: exposure time: 2 dpf
Protocol: as §1

Danio rerio embryo [16] = system: Danio rerio embryo; remark: listed apart in the source
Protocol: as §1

Danio rerio embryo [17] = experiment: EC50 Bladder size_Decrease; conditions: exposure time: 4 dpf
Protocol: as §1

Danio rerio embryo [18] = experiment: EC10 Curvature_Increase; higher = less potent; conditions: exposure time: 2 dpf
Protocol: as §1

Danio rerio embryo [19] = experiment: EC20 Heart rate; higher = less potent
Protocol: as §1

Danio rerio embryo [20] = experiment: EC10 Any effect; higher = less potent
Protocol: as §1

Danio rerio embryo [21] = experiment: EC20 Yolk sac size_Increase; higher = less potent; conditions: exposure time: 4 dpf
Protocol: as §1

Danio rerio embryo [22] = experiment: EC10 Pericard size_Increase; higher = less potent; conditions: exposure time: 2 dpf
Protocol: as §1

Danio rerio embryo [23] = experiment: EC50 Body length_Decrease
Protocol: as §1

Danio rerio embryo [24] = experiment: EC20 Curvature_Increase; higher = less potent; conditions: exposure time: 2 dpf
Protocol: as §1

Danio rerio embryo [25] = experiment: EC10 Yolk sac size_Increase; higher = less potent; conditions: exposure time: 4 dpf
Protocol: as §1

Danio rerio embryo [26] = experiment: EC50 Pericard size_Increase; conditions: exposure time: 2 dpf
Protocol: as §1

Danio rerio embryo [27] = experiment: spontaneous tail coiling frequency (coils/min/embryo); higher = more spontaneous movement; conditions: 25 hpf
Protocol: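 Spontaneous tail coilings of zebrafish embryos exposed from 2 hpf were recorded at 24-25 hpf in 1-min videos and detected by a KNIME workflow from grey-value variance. Betamethasone was tested as the dipropionate, diflorasone as the diacetate.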

Danio rerio embryo [28] = experiment: EC10 Eye size_Decrease; higher = less potent; conditions: exposure time: 2 dpf
Protocol: as §1

Danio rerio embryo [29] = experiment: EC10 LMR dark; higher = less potent; conditions: exposure time: 4 dpf
Protocol: as §1

Danio rerio embryo [30] = experiment: EC10 Pigmentation increase; higher = less potent; conditions: exposure time: 4 dpf
Protocol: as §1

Danio rerio embryo [31] = experiment: EC20 Eye-jaw distance_Decrease; higher = less potent; conditions: exposure time: 4 dpf
Protocol: as §1

Danio rerio embryo [32] = experiment: EC50 Eye size_Decrease; conditions: exposure time: 2 dpf
Protocol: as §1

Danio rerio embryo [33] = experiment: EC20 Bladder size_Decrease; higher = less potent; conditions: exposure time: 4 dpf
Protocol: as §1

Danio rerio embryo [34] = experiment: EC10 Bladder size_Decrease; higher = less potent; conditions: exposure time: 4 dpf
Protocol: as §1

Danio rerio embryo [35] = conditions: exposure time: 4 dpf; remark: listed apart in the source
Protocol: as §1

Danio rerio embryo [36] = experiment: EC20 Lack of SB; higher = less potent; conditions: exposure time: 4 dpf
Protocol: as §1

CC1(C)OC(=O)C(OCC2CC2)=C1c1ccc(S(C)(=O)=O)cc1 [Firocoxib]
Conditions	EC10 Bladder size Decrease [µM]	EC10 Curvature Increase [µM]	EC10 Eye size Decrease [µM]	EC10 Eye-jaw distance Decrease [µM]	EC10 LMR dark [µM]	EC10 Lack of SB [µM]	EC10 Pericard size Increase [µM]	EC10 Pigmentation increase [µM]	EC10 Yolk sac size Increase [µM]	EC20 Bladder size Decrease [µM]	EC20 Curvature Increase [µM]	EC20 Eye size Decrease [µM]	EC20 Eye-jaw distance Decrease [µM]	EC20 LMR dark [µM]	EC20 Lack of SB [µM]	EC20 Pericard size Increase [µM]	EC20 Pigmentation increase [µM]	EC20 Yolk sac size Increase [µM]	EC50 Bladder size Decrease [µM]	EC50 Curvature Increase [µM]	EC50 Eye size Decrease [µM]	EC50 Eye-jaw distance Decrease [µM]	EC50 LMR dark [µM]	EC50 Lack of SB [µM]	EC50 Pericard size Increase [µM]	EC50 Yolk sac size Increase [µM]
Danio rerio embryo [1]	–	–	–	–	–	–	–	–	–	–	–	–	–	–	–	–	–	–	–	–	–	–	53.7	–	–	–
Danio rerio embryo [2]	–	–	–	–	–	–	–	–	–	–	–	–	–	–	–	–	–	–	–	–	–	123	–	–	–	–
Danio rerio embryo [3]	–	–	–	79.2	–	–	–	–	–	–	–	–	–	–	–	–	–	–	–	–	–	–	–	–	–	–
Danio rerio embryo [4]	–	–	–	–	–	–	–	–	–	–	–	–	–	–	–	–	–	–	–	109	–	–	–	–	–	–
Danio rerio embryo [7]	–	–	–	–	–	–	–	–	–	–	–	–	–	–	–	58.3	–	–	–	–	–	–	–	–	–	–
Danio rerio embryo [8]	–	–	–	–	–	34.7	–	–	–	–	–	–	–	–	–	–	–	–	–	–	–	–	–	–	–	–
Danio rerio embryo [11]	–	–	–	–	–	–	–	–	–	–	–	–	–	–	–	–	100	–	–	–	–	–	–	–	–	–
Danio rerio embryo [12]	–	–	–	–	–	–	–	–	–	–	–	–	–	–	–	–	–	–	–	–	–	–	–	–	–	128
Danio rerio embryo [14]	–	–	–	–	–	–	–	–	–	–	–	–	–	22.9	–	–	–	–	–	–	–	–	–	–	–	–
Danio rerio embryo [15]	–	–	–	–	–	–	–	–	–	–	–	93.3	–	–	–	–	–	–	–	–	–	–	–	–	–	–
Danio rerio embryo [17]	–	–	–	–	–	–	–	–	–	–	–	–	–	–	–	–	–	–	56.3	–	–	–	–	–	–	–
Danio rerio embryo [18]	–	74.2	–	–	–	–	–	–	–	–	–	–	–	–	–	–	–	–	–	–	–	–	–	–	–	–
Danio rerio embryo [21]	–	–	–	–	–	–	–	–	–	–	–	–	–	–	–	–	–	68.9	–	–	–	–	–	–	–	–
Danio rerio embryo [22]	–	–	–	–	–	–	40.6	–	–	–	–	–	–	–	–	–	–	–	–	–	–	–	–	–	–	–
Danio rerio embryo [24]	–	–	–	–	–	–	–	–	–	–	85.4	–	–	–	–	–	–	–	–	–	–	–	–	–	–	–
Danio rerio embryo [25]	–	–	–	–	–	–	–	–	48.1	–	–	–	–	–	–	–	–	–	–	–	–	–	–	–	–	–
Danio rerio embryo [26]	–	–	–	–	–	–	–	–	–	–	–	–	–	–	–	–	–	–	–	–	–	–	–	–	108	–
Danio rerio embryo [28]	–	–	77.4	–	–	–	–	–	–	–	–	–	–	–	–	–	–	–	–	–	–	–	–	–	–	–
Danio rerio embryo [29]	–	–	–	–	13.9	–	–	–	–	–	–	–	–	–	–	–	–	–	–	–	–	–	–	–	–	–
Danio rerio embryo [30]	–	–	–	–	–	–	–	83	–	–	–	–	–	–	–	–	–	–	–	–	–	–	–	–	–	–
Danio rerio embryo [31]	–	–	–	–	–	–	–	–	–	–	–	–	93.2	–	–	–	–	–	–	–	–	–	–	–	–	–
Danio rerio embryo [32]	–	–	–	–	–	–	–	–	–	–	–	–	–	–	–	–	–	–	–	–	128	–	–	–	–	–
Danio rerio embryo [33]	–	–	–	–	–	–	–	–	–	39	–	–	–	–	–	–	–	–	–	–	–	–	–	–	–	–
Danio rerio embryo [34]	31.5	–	–	–	–	–	–	–	–	–	–	–	–	–	–	–	–	–	–	–	–	–	–	–	–	–
Danio rerio embryo [35]	–	–	–	–	–	–	–	–	–	–	–	–	–	–	–	–	–	–	–	–	–	–	–	64.6	–	–
Danio rerio embryo [36]	–	–	–	–	–	–	–	–	–	–	–	–	–	–	43.7	–	–	–	–	–	–	–	–	–	–	–

Conditions	EC10 Any effect [µM]	EC10 Body length Decrease [µM]	EC10 Heart rate [µM]	EC20 Any effect [µM]	EC20 Body length Decrease [µM]	EC20 Heart rate [µM]	EC50 Any effect [µM]	EC50 Body length Decrease [µM]	EC50 Heart rate [µM]	spontaneous tail coiling frequency
Danio rerio embryo [5], exposure time: 2 dpf	–	–	–	–	–	–	121	–	–	–
Danio rerio embryo [5], exposure time: 4 dpf	–	–	–	–	–	–	147	–	–	–
Danio rerio embryo [6], exposure time: 2 dpf	–	–	–	–	82.7	–	–	–	–	–
Danio rerio embryo [6], exposure time: 4 dpf	–	–	–	–	94.5	–	–	–	–	–
Danio rerio embryo [9], exposure time: 2 dpf	–	70.3	–	–	–	–	–	–	–	–
Danio rerio embryo [9], exposure time: 4 dpf	–	85	–	–	–	–	–	–	–	–
Danio rerio embryo [10], exposure time: 2 dpf	–	–	86.2	–	–	–	–	–	–	–
Danio rerio embryo [10], exposure time: 4 dpf	–	–	31.2	–	–	–	–	–	–	–
Danio rerio embryo [13], exposure time: 2 dpf	–	–	–	73.7	–	–	–	–	–	–
Danio rerio embryo [13], exposure time: 4 dpf	–	–	–	85.4	–	–	–	–	–	–
Danio rerio embryo [16], exposure time: 2 dpf	–	–	–	–	–	–	–	–	181	–
Danio rerio embryo [16], exposure time: 4 dpf	–	–	–	–	–	–	–	–	56.2	–
Danio rerio embryo [19], exposure time: 2 dpf	–	–	–	–	–	113	–	–	–	–
Danio rerio embryo [19], exposure time: 4 dpf	–	–	–	–	–	38.8	–	–	–	–
Danio rerio embryo [20], exposure time: 2 dpf	55.3	–	–	–	–	–	–	–	–	–
Danio rerio embryo [20], exposure time: 4 dpf	62.1	–	–	–	–	–	–	–	–	–
Danio rerio embryo [23], exposure time: 2 dpf	–	–	–	–	–	–	–	109	–	–
Danio rerio embryo [23], exposure time: 4 dpf	–	–	–	–	–	–	–	113	–	–
Danio rerio embryo [27], 14.9 µM	–	–	–	–	–	–	–	–	–	2.83
Danio rerio embryo [27], 29.7 µM	–	–	–	–	–	–	–	–	–	2.54 ± 0.46
Danio rerio embryo [27], 59.4 µM	–	–	–	–	–	–	–	–	–	3.5
Danio rerio embryo [27], 59.5 µM	–	–	–	–	–	–	–	–	–	2.46
Danio rerio embryo [27], 89.2 µM	–	–	–	–	–	–	–	–	–	2.31
Danio rerio embryo [27], 104 µM	–	–	–	–	–	–	–	–	–	3 ± 0.71
Danio rerio embryo [27], 133.8 µM	–	–	–	–	–	–	–	–	–	3.06

COc1ccc(Cl)cc1C(=O)NCCc1ccc(S(=O)(=O)NC(=O)NC2CCCCC2)cc1 [Glibenclamide]
Danio rerio embryo [27]
Conditions	spontaneous tail coiling frequency
3.16 µM	1.79
3.2 µM	0.98
6.3 µM	1.48
6.33 µM	1.79
12.65 µM	0.8
12.7 µM	1.41
25.3 µM	1.69 ± 1.1
50.6 µM	1.97
50.61 µM	1.66
